US7749729B2, “Methods for assessing the risk for development of cardiovascular disease” (University of Washington, priority 2004, dated 2010)

What was measured:
myeloperoxidase = biological target: T1, myeloperoxidase (Homo sapiens, UniProt P05164); test: Nitration of HDL by the myeloperoxidase-H2O2-NO2- system (3-nitrotyrosine formation, absorbance at 430 nm); format: biochemical; settings: 250 μM H2O2, 500 μM NO2-
T1 construct: from tissue; host or cells: human neutrophils
Description: FIG. 1 describes nitration of HDL by the myeloperoxidase-H2O2-nitrite system. (A,C) HDL (1 mg/ml protein) was incubated for 60 min or the indicated time at 37° C. in phosphate buffer (20 mM sodium phosphate, pH 7.4, 100 μM DTPA) supplemented with 50 nM myeloperoxidase, 250 μM H2O2 and 500 μM NO2^−. Where indicated, the concentrations of (B) NO2^− were varied. 3-Nitrotyrosine formation was monitored spectroscopically following alkalinization of the reaction mixture.
FIG. 2 describes the effect of Cl^− or taurine on HDL nitration by the myeloperoxidase-H2O2—NO2^− system or HOCl—NO2^−. HDL was exposed for 60 min at 37° C. to myeloperoxidase in phosphate buffer supplemented with 250 μM H2O2, 500 μM NO2^− and (A) the indicated concentration of Cl^− or (B) the indicated concentration of taurine and 100 mM Cl^−. […]
HDL oxidation in vitro. […] Concentrations of HOCl and H2O2 were determined spectrophotometrically (ε292=350 M^−1 cm^−1 ε240=39.4 M^−1 cm^−1) (48,49). 3-Nitrotyrosine formation in a 300 μL aliquot of the reaction mixture was determined in a microplate reader by monitoring absorbance at 430 nm following the addition of NaOH to adjust the pH>9.
Myeloperoxidase generates 3-nitrotyrosine in HDL protein under physiologically relevant in vitro conditions. […] We monitored the formation of 3-nitrotyrosine spectroscopically by quantifying absorbance of the alkalinized reaction mixture at 430 nm.

[1] = test system: mock-transfected BHK cells (low ABCA1); test: Cholesterol efflux from [3H]cholesterol-labeled mock-transfected BHK cells; format: cell-based, hamster; settings: 2 to 4 h incubation
Description: (§1) FIG. 11 describes cholesterol efflux activities of native and HOCl-oxidized HDL, apo A-I, and peptide 18A. [^3H]Cholesterol-labeled mock-(A, C) or ABCA1-transfected (A-C) BHK cells were incubated for 4 h with native (Ctrl), H2O2-oxidized, or HOCl-oxidized HDL (20 µg/mL) or apo A-I (5 µg/mL) (A), for 2 h with 5 µg/mL apo A-I oxidized with the indicated mole ratio of HOCl (B), or for 2 h with control (−) or HOCl-oxidized (+) peptide Ac-18A-NH2 (20 µg/mL) (C). At the end of the incubation, [^3H]cholesterol efflux to the acceptor particle was measured. *P<0.01 compared with controls.
Cell Culture and Cholesterol Efflux. Baby hamster kidney (BHK) cells expressing mifepristone-inducible human ABCA1 were generated as previously described (35). Cellular cholesterol was labeled by adding 1 μCi/mL [^31H]cholesterol (NEN Life Science Products) to the growth medium. Twenty four hours later, strong expression of ABCA1 was induced by incubating the cells for 20 h with DMEM containing 1 mg/mL bovine serum albumin (DMEM/BSA) and 1 nM mifepristone (Vaughan et al., 2003. J Lipid Res 44:1373-1380). […] Cholesterol efflux mediated by HDL, apo A-I, or peptide was calculated as the percentage of total [^31H]cholesterol (medium plus cell) released into the medium after subtracting the value obtained with DMEM/BSA alone. […]

[2] = test system: ABCA1-transfected BHK cells; test: Cholesterol efflux from [3H]cholesterol-labeled ABCA1-transfected BHK cells; format: cell-based, hamster; settings: for effect of oxidation of the acceptor on cholesterol efflux, compared with native acceptor: ABCA1-transfected BHK cells, acceptor oxidized with HOCl or H2O2
Description: as §1
Cell Culture and Cholesterol Efflux. Baby hamster kidney (BHK) cells expressing mifepristone-inducible human ABCA1 were generated as previously described (35). Cellular cholesterol was labeled by adding 1 μCi/mL [^31H]cholesterol (NEN Life Science Products) to the growth medium. Twenty four hours later, strong expression of ABCA1 was induced by incubating the cells for 20 h with DMEM containing 1 mg/mL bovine serum albumin (DMEM/BSA) and 1 nM mifepristone (Vaughan et al., 2003. J Lipid Res 44:1373-1380). To measure cholesterol efflux, mock- or ABCA1-transfected cells were incubated with DMEM/BSA without or with HDL, apo A-I, or peptide. After 2 to 4 h, the medium and cells were assayed for [^3H]cholesterol as described (Id.). Cholesterol efflux mediated by HDL, apo A-I, or peptide was calculated as the percentage of total [^31H]cholesterol (medium plus cell) released into the medium after subtracting the value obtained with DMEM/BSA alone.
We exposed HDL or purified apo A-I to HOCl or H2O2 (80:1 or 25:1, mol/mol, oxidant:HDL particle or oxidant:apo A-I) in a physiological buffer (138 mM NaCl, 2.7 mM KCl, 10 mM sodium phosphate) at neutral pH for 120 min at 37° C., terminating the reaction with a 20-fold molar excess (relative to oxidant) of methionine. […]

T1 sequence (P05164 279-745 limits assumed): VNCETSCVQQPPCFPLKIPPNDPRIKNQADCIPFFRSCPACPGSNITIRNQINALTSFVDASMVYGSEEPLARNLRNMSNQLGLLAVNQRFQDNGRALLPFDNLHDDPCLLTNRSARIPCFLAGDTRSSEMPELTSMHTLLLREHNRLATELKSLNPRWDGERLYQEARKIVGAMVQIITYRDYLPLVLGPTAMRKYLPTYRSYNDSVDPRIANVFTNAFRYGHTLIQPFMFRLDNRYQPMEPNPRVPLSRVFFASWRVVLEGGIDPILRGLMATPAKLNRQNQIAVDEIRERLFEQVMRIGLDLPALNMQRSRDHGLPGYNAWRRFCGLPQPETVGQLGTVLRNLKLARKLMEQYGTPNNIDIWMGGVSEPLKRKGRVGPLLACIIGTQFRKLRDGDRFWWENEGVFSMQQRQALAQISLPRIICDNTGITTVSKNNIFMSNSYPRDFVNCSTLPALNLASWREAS
T1 sequence (P05164 165-273 limits assumed): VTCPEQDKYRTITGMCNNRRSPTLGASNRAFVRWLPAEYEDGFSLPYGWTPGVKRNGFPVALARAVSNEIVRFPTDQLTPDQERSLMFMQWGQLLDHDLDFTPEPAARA

| Molecule | cholesterol efflux to the acceptor [1] | effect of oxidation of the acceptor on cholesterol efflux, compared with native acceptor [2] | further results |
| --- | --- | --- | --- |
| NCCS(=O)(=O)O [Taurine, 2-aminoethanesulfonic acid] | – | – | effect on HDL nitration (3-nitrotyrosine formation) in the presence of Cl- (myeloperoxidase; myeloperoxidase, 100 mM Cl-, 60 min, 37° C.): no effect |
| Acetyl-18A-NH2 | promoted cholesterol efflux | – | – |
| H2O2-oxidized apo A-I: purified apo A-I exposed to H2O2 (25:1 mol/mol oxidant:apo A-I) | – | no effect | – |
| HOCl-oxidized apo A-I: purified apo A-I exposed to HOCl (25:1 mol/mol oxidant:apo A-I) | – | significant decrease | – |
| apo A-I: purified apolipoprotein A-I, HDL's major protein | essentially no cholesterol efflux activity | – | cholesterol efflux to the acceptor ([2]; ABCA1-transfected BHK cells (ABCA1 overexpressed), 2 to 4 h incubation): became active |
| catalase | – | – | effect on HDL nitration (3-nitrotyrosine formation) (myeloperoxidase; 1 mg/ml HDL, 50 nM myeloperoxidase, pH 7.4, 37° C., catalase 200 nM, sodium azide 10 mM): inhibited |
